The structures appear in SMILES notation. pIC50: −log10 of the molar value.

The target in one assay is phosphorylated FGFR3 (Homo sapiens (Human), UniProt P22607). Briefly: FGFR Enzyme Binding Assay (HTRF tracer displacement), FGFR3. Particulars: 5 nM phosphorylated FGFR3, 60 minute incubation at 22° C.; read-out: FGFR3 Enz Binding IC50. As for the experimental part: The potency of compounds inhibiting human isoforms of FGFR kinase was determined using Life Technologies' Homogeneous Time Resolved Fluorescence (HTRF)-based binding assay technology. An incubation was conducted with either 5 nM dephosphorylated FGFR1 (Array Biopharma, p1702; SEQ ID NO: 1, amino acids 458 to 765, dephosphorylated by co-expression with PTP1b (protein tyrosine phosphatase 1B)), 5 nM dephosphorylated FGFR2 (Life Technologies, Cat. No. PV4106 that had been dephosphorylated with Lambda protein phosphatase (New England Biolabs, cat #P0753)) or 5 nM phosphorylated FGFR3 (Array Biopharma, p1836; SEQ ID NO: 5, amino acids 449 to 759), 50 nM Kinase Tracer 236 (Life Technologies Cat. No. PR9078A), 2 nM Biotin-anti-6HIS (Life Technologies Cat. No. PV6090) and 2 nM Europium-Streptavidin (Life Technologies Cat. No. PV6025) along with test compound in a buffer consisting of 50 mM HEPES ((4-(2-hydroxyethyl)-1-piperazineethanesulfonic acid, pH 7.5), 5 mM MgCl2, 0.005% Triton X-100, 1 mM DTT, 1 mM NaVO4 and 2% DMSO in a final volume of 12 μL Compounds were typically prepared as a 3-fold or 4-fold serial dilution in DMSO and added to the assay to give the appropriate final concentration. After a 60 minute incubation at 22° C., the extent of tracer displacement was determined using a PerkinElmer EnVision multimode plate reader via HTRF dual wavelength detection, and the percent of control (POC) was calculated using a ratiometric emission factor. One hundred POC was determined using no test compound, and 0 POC was determined in the presence of 1 μM of an appropriate control inhibitor. A 4-parameter logistic curve was fit to the POC values as a function of the concentration of compound, and the IC50 value was the point where the best-fit curve crossed 50 POC.
(TR-FRET usually uses a lanthanide donor and a delayed reading to cut background.)

The target in assay [1] is recombinant human FGFR1 catalytic domain (Homo sapiens (Human), UniProt P11362). Briefly: FGFR Enzyme Activity Assay (LanthaScreen TR-FRET), FGFR1. The class given is biochemical. Particulars: 15 μM ATP, 20 minutes incubation; read-out: FGFR1 Enz FRET IC50. How it is done:
FGFR1 kinase activity was measured by the Invitrogen LanthaScreen™ Assay technology which directly measures the amount of substrate phosphorylation by Time-resolved fluorescence energy transfer (TR-FRET) using a flourescently-labeled peptide and Europium-labeled antibody. Briefly, 200 pM His-tagged recombinant human FGFR1 catalytic domain (amino acids 308-731) (Life Technologies Cat. No. PR4660A) was incubated with 100 nM Alexa Fluor® 647-Poly-GT Peptide Substrate (Life Technologies Cat. No. PV5836) and 15 μM ATP along with test compound in a buffer consisting of 250 mM HEPES, 25 mM MgCl2, 0.05% TritonX-100, pH 7.5, and 2% DMSO. Compounds were typically prepared in a threefold serial dilution in DMSO and added to the assay to give the appropriate final concentration. After a 20 minutes incubation at 22° C., an equal volume of 2 nM LanthaScreen® Eu-PY20 Antibody (Life Technologies Cat. No. PV5691) and 10 mM EDTA was added to quench the kinase reaction and start the detection reaction. After an additional 60 minute incubation at 22° C., the reaction was measured using a PerkinElmer EnVision multimode plate reader via TR-FRET dual wavelength detection, and the percent of control (POC) calculated using a ratiometric emission factor. 100 POC was determined using no test compounds and 0 POC was determined using no enzyme. The POC values were fit to a 4-parameter logistic curve as a function of the concentration of the compound, and the IC50 value is the point where the curve crosses 50 POC.

The next assay concerns the target FGFR3 (Homo sapiens (Human), UniProt P22607). Briefly: LC/MS FGFR3 kobs assay (covalent modification). The class given is biochemical. Particulars: 500 nM FGFR3, 3 μM compound. As for the experimental part: The LC/MS FGFR1 and FGFR3 kobs assays were conducted as follows. 500 nM FGFR1 (Array BioPharma construct p1702; SEQ ID NO: 1, amino acids 458-765) or FGFR3 (Array BioPharma construct p1700; SEQ ID NO: 5, amino acids 449-759) were incubated with 3 μM compound in 25 mM HEPES (4-(2-hydroxyethyl)-1-piperazineethanesulfonic acid), pH 7.4, 5 mM MgCl2, 150 mM NaCl, 0.5 mM TCEP (tris(2-carboxyethyl) phosphine), and 2% DMSO in a total volume of 20 μL. At each time point, the reaction was quenched with 20 μL of 0.4% formic acid. The extent of protein modification by each compound was determined by LC/MS on an Agilent Technologies 6520 Q-TOF LC/MS. Protein signals were then automatically deconvoluted using Agilent Masshunter software. Deconvoluted mass signals were exported to Tibco Spotfire data analysis program for further processing and normalization.
Data analysis included five steps. First, the signals for the “DMSO Controls” were analyzed to determine the percent of signal associated with unmodified FGFR1 or FGFR3 at each time point. Next, the percent of the signal associated with the covalent modification was determined. Third, the average nonmodified “DMSO Control” signal was used to normalize the modified protein signals at each time point. The percent of unmodified protein was fit to an exponential decay model where A0 is the Percent Unmodified at the start of the reaction, and kobs is the observed rate constant over the time period.

A further assay addresses human wild type FGFR3 (Homo sapiens (Human), UniProt P22607). Briefly: FGFR3 pERK Cell Assay. The note with it: HEK-293 cells, 1 hour compound, 100 ng/ml human FGF-acidic; maximum concentration 5 μM. It counts as cell-based. As for the experimental part: HEK-293 cells transfected with dox-inducible human wild type FGFR3 (SEQ ID NO: 5) were plated in a collagen or poly-D-lysine coated 96 well flat bottom plates at 4×10^5 cells/well in complete DMEM medium containing 10% FBS and 1 μg/ml doxycycline and allowed to attach for 24 h at 37° C., 5% CO2. Cells were treated with compound using 1:3 serial dilutions with a maximum final concentration of 5 μM. Compound was incubated on cells for 1 hour at 37° C., 5% CO2. Cells were then stimulated with a final concentration of 100 ng/ml human FGF-acidic (R&D Systems Cat number 232-FA/CF) for 5 minutes at 37° C., 5% CO2. Medium was removed, and cells were lysed with lysis buffer containing phosphatase and protease inhibitors. Phospho ERK1/2 was measured using the Meso Scale Discovery sandwich assay (Meso Scale Discovery cat. no. K151DWD). The assay captures phospho ERK1/2 and detects with a sulfo-tagged total ERK1/2 antibody. The chemiluminescent signal was read on the Sector Imager Plate reader. 100 POC was determined using no test compounds and 0 POC was determined using a control compound. The POC values were fit to a 4-parameter logistic curve as a function of the concentration of the compound, and the IC50 value is the point where the curve crosses 50 POC.

Sequence of human wild type FGFR3 (P22607 23-806): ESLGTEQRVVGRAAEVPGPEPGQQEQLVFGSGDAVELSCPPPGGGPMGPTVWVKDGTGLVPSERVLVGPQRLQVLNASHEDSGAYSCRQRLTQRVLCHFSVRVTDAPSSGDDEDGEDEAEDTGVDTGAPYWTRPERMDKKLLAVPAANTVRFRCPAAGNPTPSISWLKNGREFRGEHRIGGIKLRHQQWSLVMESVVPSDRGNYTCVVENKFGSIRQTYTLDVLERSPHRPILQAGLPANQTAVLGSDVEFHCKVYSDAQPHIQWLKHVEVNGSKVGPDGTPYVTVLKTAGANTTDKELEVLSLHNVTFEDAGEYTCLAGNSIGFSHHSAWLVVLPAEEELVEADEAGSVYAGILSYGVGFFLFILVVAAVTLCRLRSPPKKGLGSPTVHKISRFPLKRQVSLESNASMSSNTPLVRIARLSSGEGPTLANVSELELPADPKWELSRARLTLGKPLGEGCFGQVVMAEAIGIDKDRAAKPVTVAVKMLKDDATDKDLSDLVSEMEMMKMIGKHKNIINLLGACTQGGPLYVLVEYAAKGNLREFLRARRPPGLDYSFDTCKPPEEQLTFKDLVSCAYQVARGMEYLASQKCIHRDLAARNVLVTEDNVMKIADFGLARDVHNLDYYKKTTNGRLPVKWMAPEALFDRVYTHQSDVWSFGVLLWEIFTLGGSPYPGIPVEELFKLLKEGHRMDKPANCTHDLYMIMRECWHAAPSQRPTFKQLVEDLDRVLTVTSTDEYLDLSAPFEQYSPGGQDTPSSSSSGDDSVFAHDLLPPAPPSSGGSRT
Sequence of FGFR3 (P22607 449-759): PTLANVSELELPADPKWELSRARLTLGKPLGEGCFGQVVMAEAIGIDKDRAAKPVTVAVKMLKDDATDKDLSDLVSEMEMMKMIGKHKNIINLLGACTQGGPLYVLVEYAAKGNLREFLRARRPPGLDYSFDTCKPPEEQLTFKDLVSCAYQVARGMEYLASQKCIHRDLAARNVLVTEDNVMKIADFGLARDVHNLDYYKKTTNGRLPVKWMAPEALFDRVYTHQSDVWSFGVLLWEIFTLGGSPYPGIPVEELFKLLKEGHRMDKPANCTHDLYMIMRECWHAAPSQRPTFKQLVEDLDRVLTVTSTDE
Sequence of phosphorylated FGFR3 (P22607 449-759): as above
Sequence of recombinant human FGFR1 catalytic domain (P11362 other isoform, or with tags, fused parts or gaps): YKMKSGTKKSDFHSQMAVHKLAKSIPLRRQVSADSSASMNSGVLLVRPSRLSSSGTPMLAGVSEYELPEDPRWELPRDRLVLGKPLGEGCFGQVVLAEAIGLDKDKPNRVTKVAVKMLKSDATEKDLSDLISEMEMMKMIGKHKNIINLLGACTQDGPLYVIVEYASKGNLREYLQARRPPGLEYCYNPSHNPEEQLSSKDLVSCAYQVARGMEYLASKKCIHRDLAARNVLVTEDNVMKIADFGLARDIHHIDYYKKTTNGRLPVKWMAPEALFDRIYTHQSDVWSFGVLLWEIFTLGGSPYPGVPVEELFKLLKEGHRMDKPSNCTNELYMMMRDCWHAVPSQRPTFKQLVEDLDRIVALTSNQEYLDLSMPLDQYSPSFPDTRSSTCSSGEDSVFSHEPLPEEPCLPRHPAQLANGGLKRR

The pIC50 is −log10 of the IC50, conventionally taken in molar units. As to `COc1cc(Nc2ccc3ncc(-c4cnn(C5CCN(C(=O)C6(F)CN(C(=O)/C=C/CN(C)C)C6)CC5)c4C)nc3c2)cc(OC)c1` [Example 17, (E)-1-(3-(4-(4-(7-((3,5-dimethoxyphenyl)amino)-quinoxalin-2-yl)-5-methyl-1H-pyrazol-1-yl)piperi-dine-1-carbonyl)-3-fluoroazetidin-1-yl)-4-(dimethylamino)but-2-en-1-one], the pIC50 is 8.30 at phosphorylated FGFR3, 6.42 in assay [1] and 7.21 at human wild type FGFR3. In addition, on FGFR3, the “FGFR3 Enz kobs” value was 0.08024 min⁻¹.

With `C=CC(=O)N1CC(C(=O)N2CCN(c3ccc(-c4cnc5ccc(Nc6cc(OC)cc(OC)c6)cc5n4)cn3)CC2)C1` [Example 5, 1-(3-(4-(5-(7-((3,5-dimethoxyphenyl)amino)-quinoxalin-2-yl)pyridin-2-yl)piperazine-1-carbonyl)azetidin-1-yl)-prop-2-en-1-one], the pIC50 at phosphorylated FGFR3 was 7.23; in assay [1], 6.35; on human wild type FGFR3, 6.50. Moreover, the “FGFR3 Enz kobs” value on FGFR3 came to 0.01486 min⁻¹.

`C=CC(=O)N1CC(F)(C(=O)N2CCN(c3cc(C)c(-c4cnc5ccc(Nc6cc(OC)cc(OC)c6)cc5n4)cn3)CC2)C1` [Example 15, 1-(3-(4-(5-(7-((3,5-dimethoxyphenyl)amino)-quinoxalin-2-yl)-4-methylpyridin-2-yl)-piperazine-1-carbonyl)-3-fluoroazetidin-1-yl)prop-2-en-1-one]: the results for the pIC50 (at phosphorylated FGFR3; in assay [1]; at human wild type FGFR3) were 6.94, 5.30 and 6.28, respectively. On FGFR3, the “FGFR3 Enz kobs” value stood at 0.0172 min⁻¹.

In the case of `C=CC(=O)N1CC(CN2CCC(n3cc(-c4cnc5ccc(Nc6cc(OC)cc(OC)c6)cc5n4)cn3)CC2)C1` [Example 30, 1-(3-((4-(4-(7-((3,5-dimethoxyphenyl)amino)quinoxalin-2-yl)-1H-pyrazol-1-yl)piperidin-1-yl)methyl)azetidin-1-yl)prop-2-en-1-one], the pIC50 on phosphorylated FGFR3 is 8.52; in assay [1] it was 6.83; at human wild type FGFR3, 7.62. Besides, on FGFR3, the “FGFR3 Enz kobs” value was 0.01591 min⁻¹.

Regarding `COc1cc(Nc2ccc3ncc(-c4cnn(C5CCN(C(=O)C6(F)CN(C(=O)/C=C/CN(C)C)C6)CC5)c4)nc3c2)cc(OC)c1` [Example 10, (E)-1-(3-(4-(4-(7-((3,5-dimethoxyphenyl)amino)-quinoxalin-2-yl)-1H-pyrazol-1-yl)piperidine-1-carbonyl)-3-fluoro-azetidin-1-yl)-4-(dimethylamino)but-2-en-1-one], the pIC50 on phosphorylated FGFR3 is 8.52; in assay [1] it was 7.46; at human wild type FGFR3, 7.85. Moreover, the “FGFR3 Enz kobs” value at FGFR3 was 0.09291 min⁻¹.

With `C=CC(=O)N1CC(OC)(C(=O)N2CCC(n3cc(-c4cnc5ccc(Nc6cc(OC)cc(OC)c6)cc5n4)cn3)CC2)C1` [Example 24, 1-(3-(4-(4-(7-((3,5-dimethoxyphenyl)amino)-quinoxalin-2-yl)-1H-pyrazol-1-yl)piperidine-1-carbonyl)-3-methoxy-azetidin-1-yl)prop-2-en-1-one], the pIC50 on phosphorylated FGFR3 was 8.05; in assay [1], 6.64; against human wild type FGFR3 it was 7.72. In addition, at FGFR3, the “FGFR3 Enz kobs” value was 0.01322 min⁻¹.

Regarding `C=CC(=O)N1CC(C(=O)N2CCC(n3cc(-c4cnc5ccc(Nc6cc(OC)cc(OC)c6)cc5n4)cn3)CC2)C1` [Example 1, 1-(3-(4-(4-(7-((3,5-dimethoxyphenyl)amino)quinoxalin-2-yl)-1H-pyrazol-1-yl)piperidine-1-carbonyl)azetidin-1-yl)prop-2-en-1-one], the pIC50 was 8.70 at phosphorylated FGFR3, 7.27 in assay [1] and 7.36 against human wild type FGFR3. Further, on FGFR3, the “FGFR3 Enz kobs” value came to 0.00945 min⁻¹.

Turning to `COc1cc(Nc2ccc3ncc(-c4cnn([C@@H]5CCN(C(=O)C6(F)CN(C(=O)/C=C/CN(C)C)C6)C5)c4)nc3c2)cc(OC)c1` [Example 19, (R,E)-1-(3-(3-(4-(7-((3,5-dimethoxyphenyl)amino)-quinoxalin-2-yl)-1H-pyrazol-1-yl)pyrrolidine-1-carbonyl)-3-fluoro-azetidin-1-yl)-4-(dimethyl-amino)but-2-en-1-one], the results for the pIC50 (at phosphorylated FGFR3; in assay [1]; on human wild type FGFR3) were 8.40, 6.54 and 6.94, respectively. Besides, the “FGFR3 Enz kobs” value on FGFR3 was 0.03902 min⁻¹.

In the case of `COc1cc(Nc2ccc3ncc(-c4cnc(N5CCN(C(=O)C6(F)CN(C(=O)/C=C/CN(C)C)C6)CC5)cc4C)nc3c2)cc(OC)c1` [Example 14, (E)-1-(3-(4-(5-(7-((3,5-dimethoxyphenyl)amino)-quinoxalin-2-yl)-4-methylpyridin-2-yl)-piperazine-1-carbonyl)-3-fluoroazetidin-1-yl)-4-(dimethylamino)but-2-en-1-one], the figures for the pIC50 (on phosphorylated FGFR3; in assay [1]; against human wild type FGFR3) were 6.91, 5.81 and 6.27, respectively. The “FGFR3 Enz kobs” value on FGFR3 came out at 0.04226 min⁻¹.

As to `COc1cc(Nc2ccc3ncc(-c4ccc(N5CCN(C(=O)C6CN(C(=O)/C=C/CN(C)C)C6)CC5)nc4)nc3c2)cc(OC)c1` [Example 6, (E)-1-(3-(4-(5-(7-((3,5-dimethoxyphenyl)amino)-quinoxalin-2-yl)pyridin-2-yl)piperazine-1-carbonyl)azetidin-1-yl)-4-(dimethylamino)but-2-en-1-one], the pIC50 on phosphorylated FGFR3 is 8.05; in assay [1], 6.67; on human wild type FGFR3, 6.64. Moreover, at FGFR3, the “FGFR3 Enz kobs” value came to 0.04816 min⁻¹.

Values taken from US12351571B2, “Substituted quinoxaline compounds as inhibitors of FGFR tyrosine kinases” (ARRAY BIOPHARMA INC., priority 2018, dated 2025).
